In PubChem BioAssay (NCI):
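Grown in 96-well plates, cells were treated for 48 hours with each compound at five concentrations. Insufficient inhibition: endpoint recorded as highest concentration tested. Definition used: TGI = concentration required for complete inhibition of growth.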

Assays:
Experiment in all cases: growth of human tumour cells (NCI), 48 h
SNB-75 CNS = test system: SNB-75 CNS
SK-MEL-28 melanoma = test system: SK-MEL-28 melanoma
SF-539 CNS = test system: SF-539 CNS
M14 melanoma = test system: M14 melanoma
UO-31 renal = test system: UO-31 renal
HCT-15 colon = test system: HCT-15 colon
SF-268 CNS = test system: SF-268 CNS
OVCAR-3 ovarian = test system: OVCAR-3 ovarian
OVCAR-4 ovarian = test system: OVCAR-4 ovarian
UACC-62 melanoma = test system: UACC-62 melanoma
HOP-62 NSCLC = test system: HOP-62 NSCLC
DU-145 prostate = test system: DU-145 prostate
T-47D breast = test system: T-47D breast
SK-OV-3 ovarian = test system: SK-OV-3 ovarian
UACC-257 melanoma = test system: UACC-257 melanoma
NCI/ADR-RES ovarian = test system: NCI/ADR-RES ovarian
NCI-H23 lung = test system: NCI-H23 lung
HL-60(TB) leukemia = test system: HL-60(TB) leukemia
RPMI-8226 leukemia = test system: RPMI-8226 leukemia
786-0 renal = test system: 786-0 renal
ACHN renal = test system: ACHN renal
A498 renal = test system: A498 renal
LOX IMVI melanoma = test system: LOX IMVI melanoma
SF-295 CNS = test system: SF-295 CNS
SK-MEL-2 melanoma = test system: SK-MEL-2 melanoma
EKVX NSCLC = test system: EKVX NSCLC
IGROV1 ovarian = test system: IGROV1 ovarian
HS 578T breast = test system: HS 578T breast
PC-3 prostate = test system: PC-3 prostate
A549 NSCLC = test system: A549 NSCLC
OVCAR-8 ovarian = test system: OVCAR-8 ovarian
HCT-116 colon = test system: HCT-116 colon
SR leukemia = test system: SR leukemia
NCI-H460 lung = test system: NCI-H460 lung
HT29 colon = test system: HT29 colon
MALME-3M melanoma = test system: MALME-3M melanoma
MOLT-4 leukemia = test system: MOLT-4 leukemia
HCC-2998 colon = test system: HCC-2998 colon
CAKI-1 renal = test system: CAKI-1 renal
NCI-H226 lung = test system: NCI-H226 lung
SN12C renal = test system: SN12C renal
COLO 205 colon = test system: COLO 205 colon
OVCAR-5 ovarian = test system: OVCAR-5 ovarian
U251 CNS = test system: U251 CNS
CCRF-CEM leukemia = test system: CCRF-CEM leukemia
MDA-MB-231 breast = test system: MDA-MB-231 breast
TK-10 renal = test system: TK-10 renal
MCF7 breast = test system: MCF7 breast
RXF 393 renal = test system: RXF 393 renal
K-562 leukemia = test system: K-562 leukemia
NCI-H522 lung = test system: NCI-H522 lung
MDA-N = test system: MDA-N
BT-549 breast = test system: BT-549 breast
KM12 colon = test system: KM12 colon
HOP-92 NSCLC = test system: HOP-92 NSCLC
SK-MEL-5 melanoma = test system: SK-MEL-5 melanoma
SW-620 colon = test system: SW-620 colon
SNB-19 CNS = test system: SNB-19 CNS

O=c1ccc2[n+]([O-])c3ccc(O)cc3oc-2c1 was tested, and the TGI (SNB-75 CNS) was > 40.7 µM, the TGI (SK-MEL-28 melanoma) was 22.6 µM and the TGI (SF-539 CNS) was > 100 µM. For the same molecule, the TGI (M14 melanoma) was 25.4 µM, the TGI (UO-31 renal) was 8 µM and the TGI (HCT-15 colon) was > 47.9 µM. For the same molecule, the TGI (SF-268 CNS) was > 100 µM, the TGI (OVCAR-3 ovarian) was > 80.3 µM and the TGI (OVCAR-4 ovarian) was 97 µM. It also gave a TGI (UACC-62 melanoma) of 7.35 µM, a TGI (HOP-62 NSCLC) of 67 µM and a TGI (DU-145 prostate) of 30.8 µM. For the same molecule, the TGI (T-47D breast) was > 100 µM, the TGI (SK-OV-3 ovarian) was > 100 µM and the TGI (UACC-257 melanoma) was 26 µM. For the same molecule, the TGI (NCI/ADR-RES ovarian) was 67.5 µM, the TGI (NCI-H23 lung) was 11.4 µM and the TGI (HL-60(TB) leukemia) was > 66.8 µM. For the same molecule, the TGI (RPMI-8226 leukemia) was > 87 µM, the TGI (786-0 renal) was 27.2 µM and the TGI (ACHN renal) was > 37.7 µM. For the same molecule, the TGI (A498 renal) was > 100 µM, the TGI (LOX IMVI melanoma) was 13.8 µM and the TGI (SF-295 CNS) was 21.6 µM. For the same molecule, the TGI (SK-MEL-2 melanoma) was 31.5 µM, the TGI (EKVX NSCLC) was > 100 µM and the TGI (IGROV1 ovarian) was > 100 µM. The TGI (HS 578T breast) was > 54.1 µM, the TGI (PC-3 prostate) was > 100 µM and the TGI (A549 NSCLC) was 20.6 µM. For the same molecule, the TGI (OVCAR-8 ovarian) was > 91.6 µM, the TGI (HCT-116 colon) was > 100 µM and the TGI (SR leukemia) was > 64 µM. For the same molecule, the TGI (NCI-H460 lung) was 38.7 µM, the TGI (HT29 colon) was 53.9 µM and the TGI (MALME-3M melanoma) was 18.3 µM. For the same molecule, the TGI (MOLT-4 leukemia) was 57 µM, the TGI (HCC-2998 colon) was > 100 µM and the TGI (CAKI-1 renal) was > 100 µM. The TGI (NCI-H226 lung) was > 66.8 µM, the TGI (SN12C renal) was 36.7 µM and the TGI (COLO 205 colon) was 30.1 µM. For the same molecule, the TGI (OVCAR-5 ovarian) was 56.6 µM, the TGI (U251 CNS) was > 100 µM and the TGI (CCRF-CEM leukemia) was > 73 µM. For the same molecule, the TGI (MDA-MB-231 breast) was > 92.3 µM, the TGI (TK-10 renal) was > 85.2 µM and the TGI (MCF7 breast) was 18.8 µM. For the same molecule, the TGI (RXF 393 renal) was > 100 µM, the TGI (K-562 leukemia) was > 100 µM and the TGI (NCI-H522 lung) was 36.6 µM. For the same molecule, the TGI (MDA-N) was 3.37 µM, the TGI (BT-549 breast) was 25.9 µM and the TGI (KM12 colon) was > 100 µM. The TGI (HOP-92 NSCLC) was > 100 µM, the TGI (SK-MEL-5 melanoma) was 13.8 µM and the TGI (SW-620 colon) was 48 µM.
For O=C(O)CCC[C@]1(O)O[C@@]2(CCCC2=O)[C@]2(O)CCC[C@@]21O, the TGI (SNB-75 CNS) was > 100 µM, the TGI (SK-MEL-28 melanoma) was > 100 µM and the TGI (SF-539 CNS) was > 100 µM. For the same molecule, the TGI (M14 melanoma) was > 100 µM, the TGI (UO-31 renal) was > 100 µM and the TGI (HCT-15 colon) was > 100 µM. The TGI (SF-268 CNS) was > 100 µM, the TGI (OVCAR-3 ovarian) was > 100 µM and the TGI (OVCAR-4 ovarian) was > 100 µM. The TGI (SNB-19 CNS) was > 100 µM, the TGI (UACC-62 melanoma) was > 100 µM and the TGI (HOP-62 NSCLC) was > 100 µM. For the same molecule, the TGI (DU-145 prostate) was > 100 µM, the TGI (T-47D breast) was > 100 µM and the TGI (UACC-257 melanoma) was > 100 µM. For the same molecule, the TGI (NCI/ADR-RES ovarian) was > 100 µM, the TGI (NCI-H23 lung) was > 100 µM and the TGI (HL-60(TB) leukemia) was > 100 µM. The TGI (RPMI-8226 leukemia) was > 100 µM, the TGI (786-0 renal) was > 100 µM and the TGI (ACHN renal) was > 100 µM. The TGI (A498 renal) was > 100 µM, the TGI (LOX IMVI melanoma) was > 100 µM and the TGI (SF-295 CNS) was 64.4 µM. The TGI (SK-MEL-2 melanoma) was > 100 µM, the TGI (EKVX NSCLC) was > 100 µM and the TGI (IGROV1 ovarian) was > 100 µM. For the same molecule, the TGI (HS 578T breast) was > 100 µM, the TGI (PC-3 prostate) was > 100 µM and the TGI (A549 NSCLC) was > 100 µM. For the same molecule, the TGI (OVCAR-8 ovarian) was > 100 µM, the TGI (HCT-116 colon) was > 100 µM and the TGI (SR leukemia) was > 100 µM. The TGI (NCI-H460 lung) was > 100 µM, the TGI (HT29 colon) was > 100 µM and the TGI (MALME-3M melanoma) was > 100 µM. The TGI (MOLT-4 leukemia) was > 100 µM, the TGI (CAKI-1 renal) was > 100 µM and the TGI (NCI-H226 lung) was > 100 µM. The TGI (SN12C renal) was > 100 µM, the TGI (COLO 205 colon) was > 100 µM and the TGI (OVCAR-5 ovarian) was > 100 µM. For the same molecule, the TGI (U251 CNS) was > 100 µM, the TGI (MDA-MB-231 breast) was > 100 µM and the TGI (TK-10 renal) was > 100 µM. The TGI (MCF7 breast) was > 100 µM, the TGI (RXF 393 renal) was > 100 µM and the TGI (K-562 leukemia) was > 100 µM. The TGI (NCI-H522 lung) was 0.228 µM, the TGI (MDA-N) was > 100 µM and the TGI (BT-549 breast) was > 100 µM. The TGI (KM12 colon) was > 100 µM, the TGI (HOP-92 NSCLC) was > 100 µM and the TGI (SK-MEL-5 melanoma) was > 100 µM. For the same molecule, the TGI (SW-620 colon) was > 100 µM.
